From ChEMBL document CHEMBL1201862, “PubChem BioAssay data set” (2004)
Calls of active or inactive are those of the source.

What was measured:
cells [1] = type: functional, cell-based
cells [2] = type: functional, cell-based; remark: listed apart in the source
Fatty acid synthase [3] = target: T1, Fatty acid synthase (Homo sapiens, UniProt P49327); test: inhibition of human FAS-TE enzyme activity – biochemical, endpoint fluorescence intensity, uHTS hits, dose response (AID 624327); type: functional;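 also: fluorescence from hydrolysis of an O-methyl fluorescein acyl ester substrate by the enzyme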
Fatty acid synthase [4] = target: T1, Fatty acid synthase; test: inhibition of human FAS-TE enzyme activity – biochemical, kinetic fluorescence intensity, dose response (AID 624326); type: functional;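 also: rate of fluorescence rise from hydrolysis of a fluorogenic O-methyl fluorescein ester substrate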
Genome polyprotein = Genome polyprotein (dengue virus type 2, UniProt P29990); test: flavivirus cap methylation enzyme inhibition – biochemical, confirmation dose response, primary screen (AID 588689); type: functional
[5] = reduction of Shn3 3'UTR-driven luciferase in osteoblasts – cell-based, Clone20 osteoblasts, firefly luciferase, cherry-picked, dose response (AID 624132); type: functional;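 also: firefly luciferase luminescence from reporter carrying the Shn3 3'UTR in osteoblasts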
[6] = target: Induced myeloid leukemia cell differentiation protein Mcl-1 (Homo sapiens, UniProt Q07820); type: functional
[7] = off-target signal loss in HeLa-CEM21 co-culture – HeLa F-luc CTL cells, cherry-picked, counter-screen for HIV-1 Env fusion inhibitor project, dose response (AID 652040); type: functional, cell-based;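 also: potency for signal decrease marking cytotoxic or nonspecific inhibition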
[8] = blockers of HIV-1 ZM109 envelope-driven cell-cell fusion – HeLa effector, CEM target cells, luciferase, cherry-pick, dose response (AID 652058); type: functional, cell-based;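 also: luciferase signal from HIV-1 Env mediated cell-cell fusion of effector and target cells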
[9] = HIV-1 AD8 envelope cell-cell fusion blockers – cherry-pick, dose response (AID 652062); type: functional, cell-based;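 also: luciferase signal from cell-cell fusion driven by HIV-1 clade B AD8 Env; potency is for inhibitors of fusion seen as a drop in luminescence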
[10] = blockers of HIV-1 envelope-mediated cell-cell fusion – cherry-pick, dose response (AID 652057); type: functional, cell-based
[11] = target: T2, Ubiquitin-conjugating enzyme E2 N (Homo sapiens, UniProt P61088); type: functional;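 also: Dose-response confirmation in a TR-FRET assay detecting UBC13-driven polyubiquitin chain formation, inhibition measured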
T2 sequence (P61088 whole entry): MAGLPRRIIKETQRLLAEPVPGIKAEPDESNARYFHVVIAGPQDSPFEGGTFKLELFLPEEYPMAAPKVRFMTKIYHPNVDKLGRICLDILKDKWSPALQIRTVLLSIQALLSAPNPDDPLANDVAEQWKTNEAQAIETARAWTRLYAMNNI

[12] = Luminescence Cell-Based Dose Retest to Confirm Inhibitors of Cancer Stem Cells. [Related pubchem assays (depositor defined):AID2717, AID2721]; type: functional; details: Homo sapiens

T1 sequence (P49327 whole entry): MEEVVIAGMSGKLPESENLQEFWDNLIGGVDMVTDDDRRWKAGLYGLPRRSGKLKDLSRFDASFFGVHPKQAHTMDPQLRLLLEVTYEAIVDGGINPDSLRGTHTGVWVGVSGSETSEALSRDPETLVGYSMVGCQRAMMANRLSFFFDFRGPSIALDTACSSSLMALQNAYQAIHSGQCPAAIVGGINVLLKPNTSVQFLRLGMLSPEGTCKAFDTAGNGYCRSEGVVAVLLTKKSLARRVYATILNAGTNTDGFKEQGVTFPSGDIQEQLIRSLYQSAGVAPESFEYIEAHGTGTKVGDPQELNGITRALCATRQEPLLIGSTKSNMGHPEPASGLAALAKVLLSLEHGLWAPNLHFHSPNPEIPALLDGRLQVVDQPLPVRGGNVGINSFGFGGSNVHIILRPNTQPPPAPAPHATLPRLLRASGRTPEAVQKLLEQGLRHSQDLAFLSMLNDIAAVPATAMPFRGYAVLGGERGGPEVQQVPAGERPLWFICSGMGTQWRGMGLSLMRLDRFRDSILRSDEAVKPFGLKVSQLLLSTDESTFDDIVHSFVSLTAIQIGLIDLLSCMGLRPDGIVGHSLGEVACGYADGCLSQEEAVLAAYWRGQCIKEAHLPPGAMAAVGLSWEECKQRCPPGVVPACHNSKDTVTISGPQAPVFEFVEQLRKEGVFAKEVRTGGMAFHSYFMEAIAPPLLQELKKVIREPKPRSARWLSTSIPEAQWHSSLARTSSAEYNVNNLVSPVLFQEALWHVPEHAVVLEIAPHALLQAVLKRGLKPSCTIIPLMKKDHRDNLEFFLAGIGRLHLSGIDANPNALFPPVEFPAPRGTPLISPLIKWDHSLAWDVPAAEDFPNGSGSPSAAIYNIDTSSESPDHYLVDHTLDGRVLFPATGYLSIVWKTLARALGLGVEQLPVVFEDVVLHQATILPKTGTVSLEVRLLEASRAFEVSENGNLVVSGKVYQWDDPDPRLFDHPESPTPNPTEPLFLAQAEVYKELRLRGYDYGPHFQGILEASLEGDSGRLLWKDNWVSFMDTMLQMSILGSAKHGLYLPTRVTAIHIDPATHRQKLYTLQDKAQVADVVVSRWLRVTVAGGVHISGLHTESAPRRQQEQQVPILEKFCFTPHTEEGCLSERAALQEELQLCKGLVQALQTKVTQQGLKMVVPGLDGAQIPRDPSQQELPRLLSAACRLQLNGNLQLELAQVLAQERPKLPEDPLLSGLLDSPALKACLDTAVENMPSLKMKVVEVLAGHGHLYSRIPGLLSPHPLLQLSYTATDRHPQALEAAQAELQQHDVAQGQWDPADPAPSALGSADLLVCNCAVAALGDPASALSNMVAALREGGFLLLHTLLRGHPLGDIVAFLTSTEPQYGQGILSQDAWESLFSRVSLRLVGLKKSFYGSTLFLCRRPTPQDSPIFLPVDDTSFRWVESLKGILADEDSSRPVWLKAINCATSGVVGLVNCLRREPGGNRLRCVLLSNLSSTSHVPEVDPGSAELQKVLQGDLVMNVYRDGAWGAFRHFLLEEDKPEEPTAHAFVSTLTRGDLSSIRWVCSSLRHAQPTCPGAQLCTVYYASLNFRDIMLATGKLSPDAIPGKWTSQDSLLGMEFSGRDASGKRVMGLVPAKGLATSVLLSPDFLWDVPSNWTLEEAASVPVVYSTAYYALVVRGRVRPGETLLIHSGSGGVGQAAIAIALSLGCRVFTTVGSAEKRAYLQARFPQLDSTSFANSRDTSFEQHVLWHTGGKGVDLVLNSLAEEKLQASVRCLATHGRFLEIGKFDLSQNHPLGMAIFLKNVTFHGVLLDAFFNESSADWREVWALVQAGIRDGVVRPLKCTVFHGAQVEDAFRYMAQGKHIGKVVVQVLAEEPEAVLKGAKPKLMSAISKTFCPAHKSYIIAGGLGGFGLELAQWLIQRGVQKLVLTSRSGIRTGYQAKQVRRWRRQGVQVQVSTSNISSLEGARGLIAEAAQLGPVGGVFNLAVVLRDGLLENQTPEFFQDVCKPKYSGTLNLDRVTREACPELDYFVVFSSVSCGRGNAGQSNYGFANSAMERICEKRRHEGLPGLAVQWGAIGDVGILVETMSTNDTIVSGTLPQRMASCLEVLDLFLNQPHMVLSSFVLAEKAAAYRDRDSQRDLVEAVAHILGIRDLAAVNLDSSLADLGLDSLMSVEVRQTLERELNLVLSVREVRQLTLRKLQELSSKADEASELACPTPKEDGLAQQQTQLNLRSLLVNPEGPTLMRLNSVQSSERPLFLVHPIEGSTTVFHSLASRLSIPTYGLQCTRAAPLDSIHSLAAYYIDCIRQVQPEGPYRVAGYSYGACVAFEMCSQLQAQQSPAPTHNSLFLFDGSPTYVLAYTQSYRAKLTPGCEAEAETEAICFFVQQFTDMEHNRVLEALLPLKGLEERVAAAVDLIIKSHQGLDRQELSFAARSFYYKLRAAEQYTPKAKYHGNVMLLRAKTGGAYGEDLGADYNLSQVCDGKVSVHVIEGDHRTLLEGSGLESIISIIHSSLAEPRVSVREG
Genome polyprotein, sequence (P29990 2492-3391 limits assumed): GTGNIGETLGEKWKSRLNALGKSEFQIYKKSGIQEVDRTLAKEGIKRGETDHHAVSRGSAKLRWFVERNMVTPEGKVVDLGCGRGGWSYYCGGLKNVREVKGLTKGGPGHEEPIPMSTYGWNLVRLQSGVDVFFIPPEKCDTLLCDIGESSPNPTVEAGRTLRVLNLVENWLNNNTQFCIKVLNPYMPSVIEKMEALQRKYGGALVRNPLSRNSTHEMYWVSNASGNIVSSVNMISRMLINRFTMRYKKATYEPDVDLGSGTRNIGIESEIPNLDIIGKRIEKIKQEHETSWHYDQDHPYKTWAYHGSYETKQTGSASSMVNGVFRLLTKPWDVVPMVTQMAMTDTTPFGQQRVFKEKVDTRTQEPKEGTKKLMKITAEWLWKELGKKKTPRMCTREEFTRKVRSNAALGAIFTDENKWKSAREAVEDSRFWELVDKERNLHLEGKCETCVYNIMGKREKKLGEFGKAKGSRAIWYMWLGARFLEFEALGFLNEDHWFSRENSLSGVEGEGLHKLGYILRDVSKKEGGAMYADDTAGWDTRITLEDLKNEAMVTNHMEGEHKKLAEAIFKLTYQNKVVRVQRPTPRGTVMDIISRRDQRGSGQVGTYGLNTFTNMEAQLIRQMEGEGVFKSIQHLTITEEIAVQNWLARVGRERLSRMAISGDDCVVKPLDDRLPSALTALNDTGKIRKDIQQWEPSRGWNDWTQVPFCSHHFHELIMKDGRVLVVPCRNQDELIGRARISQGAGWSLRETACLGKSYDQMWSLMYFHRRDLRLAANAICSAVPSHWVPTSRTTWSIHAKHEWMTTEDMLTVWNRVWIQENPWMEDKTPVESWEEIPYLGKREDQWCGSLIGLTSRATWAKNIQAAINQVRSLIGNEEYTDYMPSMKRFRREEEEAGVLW
Induced myeloid leukemia cell differentiation protein Mcl-1, sequence (Q07820 whole entry, the tested form may be a part): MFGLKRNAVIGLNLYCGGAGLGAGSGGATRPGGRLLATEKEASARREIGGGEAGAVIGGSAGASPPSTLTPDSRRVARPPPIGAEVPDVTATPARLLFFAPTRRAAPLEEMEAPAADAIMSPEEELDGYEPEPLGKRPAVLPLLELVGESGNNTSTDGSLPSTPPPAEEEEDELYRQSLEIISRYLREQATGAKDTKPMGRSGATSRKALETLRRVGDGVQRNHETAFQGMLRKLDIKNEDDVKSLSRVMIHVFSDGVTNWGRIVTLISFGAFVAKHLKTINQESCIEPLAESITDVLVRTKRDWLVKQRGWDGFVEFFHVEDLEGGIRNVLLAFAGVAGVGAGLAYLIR

With `CCn1c(SCC(=O)Nc2nncs2)nnc1-c1ccco1` the EC50 (cells [1]) was > 350 µM (not active) and the EC50 (cells [2]) was > 350 µM (not active).

In the case of `COc1ccc(C(CC(=O)Nc2cc([N+](=O)[O-])ccc2OC)c2ccccc2)cc1` (configuration not stated), the IC50 (Fatty acid synthase [3]) is reported as 12.9 µM (active) and the IC50 (Fatty acid synthase [4]) is reported as 12.5 µM (active).

With `COc1ccc(C(C2C(=O)CC(C)(C)CC2=O)C2C(=O)CC(C)(C)CC2=O)cc1` the IC50 (Genome polyprotein) was 30.4 µM (active).

With `Sc1nnc(COc2cccc3ccccc23)n1Cc1ccccc1` the AC50 [5] was 48 µM (active).

With `CNc1sc(C(=O)c2ccc(F)cc2)c(N)c1-c1nc2ccccc2s1` the IC50 [6] was 2.45 µM (active).

With `Cc1cccc(NC(=O)CSc2nc3c(oc4ccccc43)c(=O)n2-c2ccccc2)c1` the IC50 (Fatty acid synthase [3]) was 25.6 µM (inactive) and the IC50 (Fatty acid synthase [4]) was 51.3 µM (inactive).

With `C/C=C\C=C/C(=O)Nc1cccc(C2=NOC3(C2)C[C@@H](C(N)=O)N(C(=O)c2ccccc2)C3)c1` (some centres not stated) the IC50 [6] was 6.9 µM (not active).

For `Cc1ccc(-n2nc3c(c2NC(=O)c2ccco2)C[S+]([O-])C3)cc1` (configuration not stated), the AC50 [7] was 7.72 µM (active).

With `O=C1C(Cl)=C(N2CCCC2)C(=O)N1c1ccccc1F` the IC50 (Genome polyprotein) was 84.4 µM (active).

With `COc1ccc(/C=C2/C(=O)NC(=O)N(c3ccc(C)c(C)c3)C2=O)cc1CN1C(=O)c2ccccc2C1=O` the IC50 (Genome polyprotein) was 99.5 µM (active).

For `O=C(/C=C/c1cccc([N+](=O)[O-])c1)NCCSCc1ccco1`, the IC50 (Fatty acid synthase [3]) was 6.86 µM (active) and the IC50 (Fatty acid synthase [4]) was 10.1 µM (active).

With `Cc1ccc(S(=O)(=O)N(C)C)cc1NC(=O)COc1ccccc1C(=O)Nc1ccccc1` the AC50 [8] was 2.56 µM (active), the AC50 [9] was 8.41 µM (active) and the AC50 [7] was 3.87 µM (active). For the same molecule, the AC50 [10] was 1.78 µM (active).

For `CCN1C(=O)[C@H]2[C@@H](c3ccc(C)cc3)N3C(=O)N(c4cccc(Br)c4)C(=O)[C@@]3(CC(C)C)[C@H]2C1=O`, the AC50 [8] was 0.374 µM (active), the AC50 [9] was 0.672 µM (active) and the AC50 [7] was 0.382 µM (active). For the same molecule, the AC50 [10] was 0.26 µM (active).

In the case of `CC(C)(C)C1CCC(CN2C(Nc3ccccc3)=NC[C@@H]2Cc2ccccc2)CC1` (some centres not stated), the IC50 [11] is reported as > 20 µM (inactive) and the AC50 [12] is reported as 6.47 µM (active).

For `COc1ccc(S(=O)(=O)Nc2ccc3c(c2)CC(=O)N([C@H](C)CO)C[C@H](C)[C@H](CN(C)S(=O)(=O)c2ccc(F)cc2)O3)cc1`, the AC50 [9] was 10.6 µM (active) and the AC50 [10] was 0.384 µM (active).
